Measurements published in the supplement of paper PMC11061612.

Tests used:
[1] = tested on: ST486 (Burkitt's Lymphoma); assay: combination Emax (second highest fraction inhibited in the dose matrix, 72 h); higher = more inhibition; extreme values may be limits of the assay
How it was run: (§1)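 Cell lines grown in DMEM/F12 or RPMI with 10% FBS were plated in 1536-well plates and held 24 hours at 37°C, 5% CO2 before 72 hours of exposure to two-drug dose matrices, with DMSO typically at 0.2%. CellTiter-Glo 2.0 luminescence gave viability, which was converted to inhibition. Vehicle wells were set to 0 and blank wells to 1. Combination Emax is the second-highest inhibition in the matrix, and Bliss excess is the observed combination effect minus the expected EA + EB − EA·EB, where EA and EB are the single-agent effects.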

[2] = tested on: NCI-H520 (Squamous Cell Lung Carcinoma); assay: Bliss excess, mean over the matrix (fraction); higher = more synergy
How it was run: as §1

[3] = tested on: SNU-398 (Hepatocellular Carcinoma); assay: as above
How it was run: as §1

[4] = tested on: NCI-H2731 (Mesothelioma); assay: as above
How it was run: as §1

[5] = tested on: 8505C (Thyroid Gland Carcinoma); assay: as above
How it was run: as §1

[6] = tested on: SJSA-1 (Osteosarcoma); assay: as above
How it was run: as §1

[7] = tested on: NCI-H661 (Non-Small Cell Lung Carcinoma); assay: as above
How it was run: as §1

[8] = tested on: ESO51 (Esophageal Adenocarcinoma); assay: as above
How it was run: as §1

[9] = tested on: KMS-12-BM (Plasma Cell Myeloma); assay: as above
How it was run: as §1

[10] = tested on: RPMI-8226 (Plasma Cell Myeloma); assay: as above
How it was run: as §1

[11] = tested on: JHH-4 (Hepatocellular Carcinoma); assay: as above
How it was run: as §1

[12] = tested on: MOLM-13 (Acute Myeloid Leukemia); assay: as above
How it was run: as §1

[13] = tested on: NCI-H929 (Plasma Cell Myeloma); assay: as above
How it was run: as §1

[14] = tested on: COR-L279 (Small Cell Lung Carcinoma); assay: as above
How it was run: as §1

[15] = tested on: KP-3 (Pancreatic Carcinoma); assay: as above
How it was run: as §1

[16] = tested on: G-361 (Melanoma); assay: as above
How it was run: as §1

[17] = tested on: T-T (Esophageal Squamous Cell Carcinoma); assay: as above
How it was run: as §1

[18] = tested on: SU-DHL-5 (B-Cell Non-Hodgkin's Lymphoma); assay: as above
How it was run: as §1

[19] = tested on: M059J (Glioblastoma); assay: as above
How it was run: as §1

[20] = tested on: KY821 (Acute Myeloid Leukemia); assay: as above
How it was run: as §1
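Throughout, for Bliss excess, mean over the matrix: after 72 h of two-drug dosing.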

SMILES	combination Emax [1]	Bliss excess [2]	Bliss excess [3]	Bliss excess [4]	Bliss excess [5]	Bliss excess [6]	Bliss excess [7]	Bliss excess [8]	Bliss excess [9]	Bliss excess [10]	Bliss excess [11]	Bliss excess [12]	Bliss excess [13]	Bliss excess [14]	Bliss excess [15]	Bliss excess [16]	Bliss excess [17]	Bliss excess [18]	Bliss excess [19]	Bliss excess [20]
CN(C)CCCOc1ccc(-c2ccc3ncc4c(c3c2)n(C2CCOCC2)c(=O)n4C)cn1 [AZD0156] + C=CCn1c(=O)c2cnc(Nc3ccc(N4CCN(C)CC4)cc3)nc2n1-c1cccc(C(C)(C)O)n1 [AZD1775] (first compound max 1 µM, partner max 1 µM)	0.987	-0.0692	-0.0887	-0.0898	-0.0492	-0.0674	-0.0615	0.0363	0.0744	-0.0017	-0.0065	-0.0885	-0.0464	-0.0763	-0.0212	-0.0556	-0.0122	-0.0016	-0.11	-0.0505
CN(C)CCCOc1ccc(-c2ccc3ncc4c(c3c2)n(C2CCOCC2)c(=O)n4C)cn1 [AZD0156] + CCN(CCO)CCCOc1ccc2c(Nc3cc(CC(=O)Nc4cccc(F)c4)[nH]n3)ncnc2c1 [AZD2811] (first compound max 1 µM, 7x7, partner max 1 µM)	0.913	0.0012	-0.0184	-0.0279	-0.0257	-0.0348	-0.0304	-0.0147	0.13	0.0092	-0.0297	-0.0617	0.0125	0.0256	-0.0417	-0.0148	-0.0262	-0.0542	-0.0165	0.147
CN(C)CCCOc1ccc(-c2ccc3ncc4c(c3c2)n(C2CCOCC2)c(=O)n4C)cn1 [AZD0156] + C[C@@H]1COCCN1C2=NC(=NC(=C2)C3(CC3)[S@](=N)(=O)C)C4=C5C=CNC5=NC=C4 [AZD6738] (first compound max 1 µM, 7x7, partner max 10 µM)	0.948	-0.0064	-0.0039	-0.0532	0.0051	-0.0266	0.0059	-0.0449	0.117	0.102	-0.0317	-0.0334	-0.0182	-0.0547	-0.0325	0.032	-0.014	0.0265	0.0092	0.0228
CN(C)CCCOc1ccc(-c2ccc3ncc4c(c3c2)n(C2CCOCC2)c(=O)n4C)cn1 [AZD0156] + O=C(c1cc(Cc2n[nH]c(=O)c3ccccc23)ccc1F)N1CCN(C(=O)C2CC2)CC1 [Olaparib] (first compound max 3 µM, partner max 3 µM)	0.621	0.0671	0.0815	0.0068	0.066	0.017	0.0145	0.0292	0.0448	0.103	-0.0166	0.21	0.016	0.0782	-0.0305	0.0857	0.122	0.197	0.0304	0.0829
C=CCn1c(=O)c2cnc(Nc3ccc(N4CCN(C)CC4)cc3)nc2n1-c1cccc(C(C)(C)O)n1 [AZD1775] + C1CN(CCC1(C(=O)N[C@@H](CCO)C2=CC=C(C=C2)Cl)N)C3=NC=NC4=C3C=CN4 [Capivasertib] (first compound max 3 µM, partner max 3 µM)	0.971	-0.0771	0.0054	0.0078	-0.101	-0.0088	-0.0905	-0.004	0.0629	0.0216	0.0061	0.0263	-0.0234	-0.0276	0.0131	-0.0042	-0.0047	0.0233	-0.064	0.0225
C=CCn1c(=O)c2cnc(Nc3ccc(N4CCN(C)CC4)cc3)nc2n1-c1cccc(C(C)(C)O)n1 [AZD1775] + C[C@@H]1COCCN1C2=NC(=NC(=C2)C3(CC3)[S@](=N)(=O)C)C4=C5C=CNC5=NC=C4 [AZD6738] (first compound max 1 µM, partner max 10 µM)	0.979	-0.0133	-0.0067	0.0444	-0.0076	0.0047	0.0157	-0.0247	0.0418	0.0407	0.0007	0.0233	-0.0042	0.0131	-0.0075	-0.0177	0.0089	0.0446	-0.0206	0.0358
C=CCn1c(=O)c2cnc(Nc3ccc(N4CCN(C)CC4)cc3)nc2n1-c1cccc(C(C)(C)O)n1 [AZD1775] + O=C(c1cc(Cc2n[nH]c(=O)c3ccccc23)ccc1F)N1CCN(C(=O)C2CC2)CC1 [Olaparib] (first compound max 1 µM, partner max 10 µM)	0.979	-0.0057	-0.0396	-0.0438	–	-0.0262	-0.0179	-0.0917	-0.0239	-0.0366	-0.0254	0.0405	-0.0525	-0.0572	-0.0118	-0.0217	-0.002	0.0215	0.0374	0.019
CCN(CCO)CCCOc1ccc2c(Nc3cc(CC(=O)Nc4cccc(F)c4)[nH]n3)ncnc2c1 [AZD2811] + C=CCn1c(=O)c2cnc(Nc3ccc(N4CCN(C)CC4)cc3)nc2n1-c1cccc(C(C)(C)O)n1 [AZD1775] (first compound max 1 µM, partner max 1 µM)	0.983	-0.108	0.0295	0.0089	-0.0071	-0.0109	-0.0029	-0.0002	0.122	-0.0172	0.0015	-0.0698	-0.0671	0.0107	-0.036	-0.0162	-0.037	-0.0309	-0.0176	0.0868
CCN(CCO)CCCOc1ccc2c(Nc3cc(CC(=O)Nc4cccc(F)c4)[nH]n3)ncnc2c1 [AZD2811] + C[C@@H]1COCCN1C2=NC(=NC(=C2)C3(CC3)[S@](=N)(=O)C)C4=C5C=CNC5=NC=C4 [AZD6738] (first compound max 1 µM, 7x7, partner max 10 µM)	0.913	-0.0834	0.007	-0.0668	-0.0514	-0.0348	-0.0567	-0.0567	0.0141	-0.0178	-0.0341	-0.0161	-0.0341	0.0322	-0.0582	-0.0875	-0.0105	-0.0382	-0.0138	0.105
CCN(CCO)CCCOc1ccc2c(Nc3cc(CC(=O)Nc4cccc(F)c4)[nH]n3)ncnc2c1 [AZD2811] + O=C(c1cc(Cc2n[nH]c(=O)c3ccccc23)ccc1F)N1CCN(C(=O)C2CC2)CC1 [Olaparib] (first compound max 1 µM, 7x7, partner max 10 µM)	0.856	0.041	-0.0223	0.0001	-0.0228	-0.0232	-0.0062	-0.0379	0.0456	-0.0137	-0.0293	-0.0094	0.0305	-0.0125	-0.0484	-0.0295	-0.0073	-0.0466	-0.0213	0.0512
CN(CCO)CC[C@H](CSc1ccccc1)Nc1ccc(S(=O)(=O)NC(=O)c2ccc(N3CCC([C@@H](O)c4ccccc4-c4ccc(Cl)cc4)CC3)cc2)cc1S(=O)(=O)C(F)(F)F [AZD4320] + C[C@@H]1COCCN1C2=NC(=NC(=C2)C3(CC3)[S@](=N)(=O)C)C4=C5C=CNC5=NC=C4 [AZD6738] (first compound max 1 µM, 7x7, partner max 10 µM)	0.969	-0.0547	-0.0452	-0.0178	-0.0298	-0.113	-0.0197	-0.0203	0.0012	0.0338	-0.0657	0.0272	-0.0097	0.0292	-0.042	-0.0395	0.0494	-0.0426	–	-0.0241
CS(=O)(=O)CCNCc1ccc(-c2ccc3ncnc(Nc4ccc(OCc5cccc(F)c5)c(Cl)c4)c3c2)o1 [Lapatinib] + Cn1cnc2c(F)c(Nc3ccc(Br)cc3Cl)c(C(=O)NOCCO)cc21 [Selumetinib] (first compound max 10 µM, 7x7, partner max 10 µM)	0.825	-0.034	–	-0.012	–	-0.0364	–	–	–	–	–	–	0.0271	-0.0224	0.0488	–	0.0514	–	-0.0403	–
CS(=O)(=O)CCNCc1ccc(-c2ccc3ncnc(Nc4ccc(OCc5cccc(F)c5)c(Cl)c4)c3c2)o1 [Lapatinib] + NC1(c2ccc(-c3nc4ccn5c(=O)[nH]nc5c4cc3-c3ccccc3)cc2)CCC1 [MK-2206] (first compound max 10 µM, 7x7, partner max 10 µM)	0.908	0.0011	–	0.0201	–	-0.0402	–	–	–	–	–	–	-0.0278	0.0229	-0.0194	–	-0.0168	–	-0.0047	0.0724
CCc1c2c(nc3ccc(O)cc13)-c1cc3c(c(=O)n1C2)COC(=O)[C@]3(O)CC [SN-38] + O=C(c1cc(Cc2n[nH]c(=O)c3ccccc23)ccc1F)N1CCN(C(=O)C2CC2)CC1 [Olaparib] (first compound max 0.3 µM, 7x7, partner max 10 µM)	0.702	0.0654	0.0008	0.0324	0.0498	0.0423	0.0696	-0.0199	–	–	–	–	0.0505	0.0742	-0.0338	0.0322	-0.0243	0.065	0.0784	0.0503
C[C@@H](c1ccc2nccn2c1)n1nnc2ncc(-c3cnn(C)c3)nc21 [Savolitinib] + CN(CC[C@H](CSC1=CC=CC=C1)NC2=C(C=C(C=C2)S(=O)(=O)NC(=O)C3=CC=C(C=C3)N4CCC(CC4)[C@H](C5=CC=CC=C5C6=CC=C(C=C6)Cl)O)S(=O)(=O)C(F)(F)F)CCO [AZD4320] (first compound max 1 µM, 7x7, partner max 1 µM)	–	–	-0.0665	–	-0.0719	–	-0.0669	-0.0038	-0.0005	-0.0379	-0.0309	0.0288	–	–	–	-0.0621	–	-0.0451	–	0.0059
